Read-outs that look alike come from different tables or passages of the source.

The source of these data is patent US20230069174A1, “NITROGEN-CONTAINING HETEROCYCLIC AUTOTAXIN INHIBITOR, AND COMPOSITION CONTAINING SAME AND USE THEREOF” (SICHUAN HAISCO PHARMACEUTICAL CO., LTD., priority 2019, published 2023).

In this assay the target is T1, ATX (Homo sapiens, UniProt Q13822).
T1 construct: ATX activity was detected by detecting LPA production in pooled human plasma; from tissue; host or cells: pooled human plasma (heparin-anticoagulated whole blood, centrifuged)
The assay is described as follows: ATX inhibitory activity: LPA production in pooled human plasma, LC-MS-MS. The following applies: 37° C. 2 h. It is filed as biochemical. The procedure:
Experimental subject: compounds to be tested.
ATX activity was detected by detecting LPA production in pooled human plasma. Whole blood anticoagulated with heparin was collected and centrifuged, and then plasma was collected. 5-μL gradient dilution of the compound to be tested or DMSO was added to 95-μL plasma, incubated at 37° C. for 2 h, then a stop solution (40 mM disodium hydrogen phosphate buffer, containing a buffer solution (containing 30 mM citric acid, pH=4)) was added. LPA in plasma was detected by LC-MS-MS before and after incubation.
LPA (18:2) and (20:4) LC-MS-MS analytical method
Using a 1.5 mL EP tube, 3.0 μL of each of the working solutions for standard curve and quality control was taken and added to 27.0 μL of water. After homogeneously mixing by vortex, 400 μL of internal standard solution was added. After homogeneously mixing by vortex, the mixture was centrifuged at 4° C. for 10 min. 180 μL of supernatant was taken and added into a 96-well plate, waiting for sample injection.
10 μL of the compound to be tested (10 mg/ml) was precisely pipetted into an EP tube, 990 μL of DMSO solution was added, and the mixture was vortexed to completely dissolve to obtain a solution (100 μg/mL).
Inhibition rate of ATX receptor activity was calculated in the following way: inhibition rate %=((LPAc−LPA0)−(LPAi−LPA0))/(LPAc−LPA0)*100%, wherein LPAc was the LPA content in plasma after DMSO was added and incubated for 2 h, LPA0 was the LPA content in plasma before DMSO was added for incubation, and LPAi was the LPA content in plasma after test compound was added and incubated for 2 h.

Setting [1] is: LPA 18:2 readout, read-out: Inhibitory activity against ATX receptor, LPA 18:2 IC50.
[2] abbreviates: LPA 20:4 readout, read-out: Inhibitory activity against ATX receptor, LPA 20:4 IC50.

On to `O=C(Cc1nnc(-c2cnc(NC3Cc4ccc(-c5ccoc5)cc4C3)nc2)o1)N1CCc2[nH]nnc2C1` (stereo not drawn) [Compound 28, 2-(5-(2-((5-(furan-3-yl)-2,3-dihydro-1H-inden-2-yl)amino)pyrimidin-5-yl)-1,3,4-oxadiazol-2-yl)-1-(1,4,6,7-tetrahydro-5H-[1,2,3]triazolo[4,5-c]pyridin-5-yl)ethan-1-one], for which the IC50 (commonly the concentration needed to halve the response being measured) under setting [1] turned out to be 5.24 nM and the IC50 under setting [2] was 5.4 nM. With `O=C(N1CCc2[nH]nnc2C1)C1(c2nnc(-c3cnc(NC4Cc5ccccc5C4)nc3)o2)CCC1` [Compound 20, (1-(5-(2-((2,3-dihydro-1H-inden-2-yl)amino)pyrimidin-5-yl)-1,3,4-oxadiazol-2-yl)cyclobutyl)(1,4,6,7-tetrahydro-5H-[1,2,3]triazolo[4,5-c]pyridin-5-yl)methanone], the IC50 reads like this: under setting [1], 3.65 nM; under setting [2], 3.76 nM. As for `C#Cc1ccc2c(c1)C[C@@H](Nc1ncc(-c3nnc(CC(=O)N4CCc5[nH]nnc5C4)o3)cn1)C2` (single isomer, unassigned) [Compound 40], the IC50 is, setting by setting: under setting [1], 1.51 nM; under setting [2], 1.56 nM. Consider `CC(F)(C(=O)N1CCc2[nH]nnc2C1)c1nnc(-c2cnc(NC3Cc4ccccc4C3)nc2)o1` (stereo not drawn) [Compound 27, 2-(5-(2-((2,3-dihydro-1H-inden-2-yl)amino)pyrimidin-5-yl)-1,3,4-oxadiazol-2-yl)-2-fluoro-1-(1,4,6,7-tetrahydro-5H-[1,2,3]triazolo[4,5-c]pyridin-5-yl)propan-1-one], for which the IC50 reads like this: under setting [1], 6.26 nM; under setting [2], 7.08 nM. The like results for `O=C(Cc1nnc(-c2cnc(NC3Cc4cc5c(cc4C3)CC5)nc2)o1)N1CCc2[nH]nnc2C1` [Compound 30, 2-(5-(2-((2,4,5,6-tetrahydro-1H-cyclobuta[f]inden-5-yl)amino)pyrimidin-5-yl)-1,3,4-oxadiazol-2-yl)-1-(1,4,6,7-tetrahydro-5H-[1,2,3]triazolo[4,5-c]pyridin-5-yl)ethan-1-one] were, in that order, 1.58 nM and 1.92 nM. As for `O=C(Cc1nnc(-c2cnc(NC3Cc4ccc(C5CC5)cc4C3)nc2)o1)N1CCc2[nH]nnc2C1` (stereo not drawn) [Compound 7, 2-(5-(2-((5-cyclopropyl-2,3-dihydro-1H-inden-2-yl)amino)pyrimidin-5-yl)-1,3,4-oxadiazol-2-yl)-1-(1,4,6,7-tetrahydro-5H-[1,2,3]triazolo[4,5-c]pyridin-5-yl)ethan-1-one], the IC50 stood at 7.46 nM under setting [1] and 7.67 nM under setting [2].

As to `O=C(Cc1nnc(-c2cnc(N[C@H]3Cc4ccc(-c5ccoc5)cc4C3)nc2)o1)N1CCc2[nH]nnc2C1` (single isomer, unassigned) [Compound 42], the IC50 amounted to 2.86 nM under setting [1] and 2.69 nM under setting [2]. As to `O=C(Cc1nnc(-c2cnc(NC3Cc4cscc4C3)nc2)o1)N1CCc2[nH]nnc2C1` [Compound 26, 2-(5-(2-((5,6-dihydro-4H-cyclopenta[c]thiophen-5-yl)amino)pyrimidin-5-yl)-1,3,4-oxadiazol-2-yl)-1-(1,4,6,7-tetrahydro-5H-[1,2,3]triazolo[4,5-c]pyridin-5-yl)ethan-1-one], the IC50 reads like this: under setting [1], 8.73 nM; under setting [2], 8.86 nM. Regarding `O=C(Cn1cc(-c2cnc(NC3Cc4ccccc4C3)nc2)c(OC2CC2)n1)N1CCc2[nH]nnc2C1` [Compound 1, 2-(3-cyclopropoxy-4-(2-((2,3-dihydro-1H-inden-2-yl)amino)pyrimidin-5-yl)-1H-pyrazol-1-yl)-1-(1,4,6,7-tetrahydro-5H-[1,2,3]triazolo[4,5-c]pyridin-5-yl)ethan-1-one], the IC50 under setting [1] worked out at 8.53 nM. Take `O=C(Cc1nnc(-c2cnc(NC3Cc4ccc(C(F)F)cc4C3)nc2)o1)N1CCc2[nH]nnc2C1` (stereo not drawn) [Compound 9, 2-(5-(2-((5-(difluoromethyl)-2,3-dihydro-1H-inden-2-yl)amino)pyrimidin-5-yl)-1,3,4-oxadiazol-2-yl)-1-(1,4,6,7-tetrahydro-5H-[1,2,3]triazolo[4,5-c]pyridin-5-yl)ethan-1-one]: the IC50 by setting is: under setting [1], 3.26 nM; under setting [2], 3.65 nM. In the same order, the values of `O=C(N1CCc2[nH]nnc2C1)C1(c2nnc(-c3cnc(NC4Cc5ccccc5C4)nc3)o2)CC1` [Compound 4, (1-(5-(2-((2,3-dihydro-1H-inden-2-yl)amino)pyrimidin-5-yl)-1,3,4-oxadiazol-2-yl)cyclopropyl)(1,4,6,7-tetrahydro-5H-[1,2,3]triazolo[4,5-c]pyridin-5-yl)methanone] are 4.93 nM and 5.33 nM. The like results for `N#Cc1nn(CC(=O)N2CCc3[nH]nnc3C2)cc1-c1cnc(NC2Cc3ccccc3C2)nc1` [Compound 2, 4-(2-((2,3-dihydro-1H-inden-2-yl)amino)pyrimidin-5-yl)-1-(2-oxo-2-(1,4,6,7-tetrahydro-5H-[1,2,3]triazolo[4,5-c]pyridin-5-yl)ethyl)-1H-pyrazole-3-carbonitrile] were, in that order, 6.19 nM and 6.85 nM.

`O=C(Cc1nnc(-c2cnc(NC3Cc4cc5c(cc4C3)OCO5)nc2)o1)N1CCc2nn[nH]c2C1` [Compound 29, 2-(5-(2-((6,7-dihydro-5H-indeno[5,6-d][1,3]dioxol-6-yl)amino)pyrimidin-5-yl)-1,3,4-oxadiazol-2-yl)-1-(3,4,6,7-tetrahydro-5H-[1,2,3]triazolo[4,5-c]pyridin-5-yl)ethan-1-one]: the IC50 was 2.75 nM under setting [1] and 3.27 nM under setting [2].

Take `O=C(NC1(c2nnc(-c3cnc(NC4Cc5ccccc5C4)nc3)o2)CC1)N1CCc2[nH]nnc2C1` [Compound 14, N-(1-(5-(2-((2,3-dihydro-1H-inden-2-yl)amino)pyrimidin-5-yl)-1,3,4-oxadiazol-2-yl)cyclopropyl)-1,4,6,7-tetrahydro-5H-[1,2,3]triazolo[4,5-c]pyridine-5-carboxamide]: the IC50 is 5.97 nM under setting [1] and 6.56 nM under setting [2]. The like results for `N#Cc1nc(CC(=O)N2CCc3[nH]nnc3C2)oc1-c1cnc(NC2Cc3ccccc3C2)nc1` [Compound 22, 5-(2-((2,3-dihydro-1H-inden-2-yl)amino)pyrimidin-5-yl)-2-(2-oxo-2-(1,4,6,7-tetrahydro-5H-[1,2,3]triazolo[4,5-c]pyridin-5-yl)ethyl)oxazole-4-carbonitrile] were, in that order, 4.97 nM and 6.84 nM.

Consider `CNC(=O)c1nn(CC(=O)N2CCc3[nH]nnc3C2)cc1-c1cnc(NC2Cc3ccccc3C2)nc1` [Compound 3, 4-(2-((2,3-dihydro-1H-inden-2-yl)amino)pyrimidin-5-yl)-N-methyl-1-(2-oxo-2-(1,4,6,7-tetrahydro-5H-[1,2,3]triazolo[4,5-c]pyridin-5-yl)ethyl)-1H-pyrazole-3-carboxamide], for which the IC50 was found to be 5.68 nM under setting [1] and 5.65 nM under setting [2]. For `C#Cc1ccc2c(c1)CC(Nc1ncc(-c3nnc(CC(=O)N4CCc5[nH]nnc5C4)o3)cn1)C2` (stereo not drawn) [Compound 31, 2-(5-(2-((5-ethynyl-2,3-dihydro-1H-inden-2-yl)amino)pyrimidin-5-yl)-1,3,4-oxadiazol-2-yl)-1-(1,4,6,7-tetrahydro-5H-[1,2,3]triazolo[4,5-c]pyridin-5-yl)ethan-1-one], the IC50 is 2.61 nM under setting [1] and 2.85 nM under setting [2].
